From patent publication US20240327393A1 (SIRONAX LTD., priority 2021, published 2024)

Each compound was assayed on HT-1080 (ATCC, CCL-121) cells (assay: HT-1080 cell viability assay with ferroptosis inducer RSL3 (Cell Titer-Glo)). Conditions: Homo sapiens; HT-1080 cells treated with RSL3; 3-fold, 10-point dilution, 1.1 μM highest concentration; Table 2; read-out: EC50 (nM), ferroptosis inhibitory activity.
Assay type: cell-based
How it was run: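 HT-1080 cells (6000 per well) were cultured overnight at 37 °C, then co-treated with RSL3 and compound in a 3-fold, 10-point series topping at 1.1 μM. Viability was read by CellTiter-Glo luminescence and normalized to untreated controls. EC50 came from a sigmoidal non-linear regression fit.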

`Cc1cc(N2CC(C)OC(C)C2)ccc1Nc1ccc2c(c1)c(C(N)=O)cn2C` (stereo not drawn) [Compound 444, 5-((4-(2,6-dimethylmorpholino)-2-methylphenyl)amino)-1-methyl-1H-indole-3-carboxamide] and `CC1CN(c2ccc(Nc3ccc4c(c3)CN(C)C4)cc2)CC(C)O1` (stereo not drawn) [Compound 430, N-(4-(2,6-dimethylmorpholino)phenyl)-2-methylisoindolin-5-amine] fall in the same range of EC50: 0.1 to 100 nM for the first, 0.1 to 100 nM for the second.

`CC(=O)N1CCc2cc(Nc3ccccc3)ccc2C1` [Compound 106, 1-(6-(phenylamino)-3,4-dihydroisoquinolin-2(1H)-yl)ethan-1-one] and `CC1CCCN(c2ccc(Nc3ccc4c(c3)CN(C)C4=O)cc2)C1` (stereo not drawn) [Compound 241, 2-methyl-5-((4-(3-methylpiperidin-1-yl)phenyl)amino)isoindolin-1-one] fall in the same range of EC50: 0.1 to 100 nM for the first, 0.1 to 100 nM for the second.

`CN1Cc2cc(Nc3ccc(N4CCCCC4)c(C(F)(F)F)c3)ccc2C1=O` [Compound 178, 2-methyl-5-((4-(piperidin-1-yl)-3-(trifluoromethyl)phenyl)amino) isoindolin-1-one] and `CN1Cc2cc(Nc3ccc(N4CCCCC4)c(N(C)C)c3)ccc2C1=O` [Compound 303, 5-((3-(dimethylamino)-4-(piperidin-1-yl)phenyl)amino)-2-methylisoindolin-1-one] fall in the same range of EC50: 0.1 to 100 nM for the first, 0.1 to 100 nM for the second.

`CC1CN(c2ccc(Nc3ccc4c(c3)OCC(=O)N4)cc2)CC(C)O1` (stereo not drawn) [Compound 140, 7-((4-(2,6-dimethylmorpholino)phenyl)amino)-2H-benzo[b][1,4]oxazin-3(4H)-one] and `CC1CN(c2ccc(Nc3ccc4oc(=O)[nH]c4c3)cc2)CC(C)O1` (stereo not drawn) [Compound 441, 5-((4-(2,6-dimethylmorpholino)phenyl)amino)benzo[d]oxazol-2(3H)-one] fall in the same range of EC50: 0.1 to 100 nM for the first, 0.1 to 100 nM for the second.

`O=C1c2ccc(Nc3ccc(N4CCCCC4)cc3)cc2CN1CC1CC1` [Compound 185, 2-(cyclopropylmethyl)-5-((4-(piperidin-1-yl)phenyl)amino)isoindolin-1-one] and `O=C1c2ccc(Nc3ccc(N4CCC(C(F)(F)F)CC4)cc3)cc2CN1C1CCOCC1` [Compound 258, 2-(tetrahydro-2H-pyran-4-yl)-5-((4-(4-(trifluoromethyl)piperidin-1-yl)phenyl)amino)isoindolin-1-one] fall in the same range of EC50: 0.1 to 100 nM for the first, 0.1 to 100 nM for the second.

`CCC(C)(C)c1ccc(Nc2ccc3c(c2)OCC(=O)N3C)cc1` [Compound 38, 4-methyl-7-((4-(tert-pentyl)phenyl)amino)-2H-benzo[b][1,4]oxazin-3(4H)-one] and `CC1CC(c2ccc(Nc3ccc4c(c3)OCC(=O)N4C)cc2)CC(C)O1` (stereo not drawn) [Compound 64, 7-((4-(2,6-dimethyltetrahydro-2H-pyran-4-yl)phenyl)amino)-4-methyl-2H-benzo[b][1,4]oxazin-3(4H)-one] fall in the same range of EC50: 0.1 to 100 nM for the first, 0.1 to 100 nM for the second.

`CC1CN(c2ccc(Nc3ccc4c(c3)n(C)c(=O)n4CCN(C)C)cc2)CC(C)O1` (stereo not drawn) [Compound 426, 1-(2-(dimethylamino)ethyl)-5-((4-(2,6-dimethylmorpholino)phenyl)amino)-3-methyl-1,3-dihydro-2H-benzo[d]imidazol-2-one] and `Cn1c(=O)n(C)c2cc(Nc3ccc(N4CCC(F)(F)CC4)cc3)ccc21` [Compound 297, 5-((4-(4,4-difluoropiperidin-1-yl)phenyl)amino)-1,3-dimethyl-1,3-dihydro-2H-benzo[d]imidazol-2-one] fall in the same range of EC50: 0.1 to 100 nM for the first, 0.1 to 100 nM for the second.

`CC1CCN(c2ccc(Nc3ccc4nnn(C)c4c3)cc2)CC1` [Compound 321, 1-methyl-N-(4-(4-methylpiperidin-1-yl)phenyl)-1H-benzo[d][1,2,3]triazol-6-amine] and `Cn1nnc2cc(Nc3ccc(N4CCC(C(F)(F)F)CC4)cc3)ccc21` [Compound 300, 1-methyl-N-(4-(4-(trifluoromethyl)piperidin-1-yl)phenyl)-1H-benzo[d][1,2,3]triazol-5-amine] fall in the same range of EC50: 0.1 to 100 nM for the first, 0.1 to 100 nM for the second.

`Cc1cc(Nc2ccc3c(c2)OCC(=O)N3C)ccc1N1CC(C)OC(C)C1` (stereo not drawn) [Compound 52, 7-((4-(2,6-dimethylmorpholino)-3-methylphenyl)amino)-4-methyl-2H-benzo[b][1,4]oxazin-3(4H)-one] and `Cc1cc(N2CCC(C(F)(F)F)CC2)c(F)cc1Nc1ccc2c(c1)OCC(=O)N2C` [Compound 59, 7-((5-fluoro-2-methyl-4-(4-(trifluoromethyl)piperidin-1-yl)phenyl)amino)-4-methyl-2H-benzo[b][1,4]oxazin-3(4H)-one] fall in the same range of EC50: 0.1 to 100 nM for the first, 0.1 to 100 nM for the second.

`CC(C)C1CCN(c2ncc(Nc3ccc4c(c3)OCC(=O)N4C)cn2)CC1` [Compound 36, 7-((2-(4-isopropylpiperidin-1-yl)pyrimidin-5-yl)amino)-4-methyl-2H-benzo[b][1,4]oxazin-3(4H)-one] and `Cn1c(=O)n(C)c2cc(Nc3ccc(N4CCC(C(F)(F)F)CC4)nc3)ccc21` [Compound 362, 1,3-dimethyl-5-((6-(4-(trifluoromethyl)piperidin-1-yl)pyridin-3-yl)amino)-1,3-dihydro-2H-benzo[d]imidazol-2-one] fall in the same range of EC50: 0.1 to 100 nM for the first, 0.1 to 100 nM for the second.

`CN1CCOc2cc(Nc3ccc4c(c3)n(C)c(=O)n4C)ccc21` [Compound 288, 1,3-dimethyl-5-((4-methyl-3,4-dihydro-2H-benzo[b][1,4]oxazin-7-yl)amino)-1,3-dihydro-2H-benzo[d]imidazol-2-one] and `Cn1c(=O)oc2cc(Nc3ccc(N4CC5(CCC5)C4)cc3)ccc21` [Compound 327, 6-((4-(2-azaspiro[3.3]heptan-2-yl)phenyl)amino)-3-methylbenzo[d]oxazol-2(3H)-one] fall in the same range of EC50: 0.1 to 100 nM for the first, 0.1 to 100 nM for the second.

`Cn1cnc2cc(Nc3ccc(N4CCC(C(F)(F)F)CC4)cc3)ccc21` [Compound 336, 1-methyl-N-(4-(4-(trifluoromethyl)piperidin-1-yl)phenyl)-1H-benzo[d]imidazol-5-amine] and `NC(=O)NCCn1cc2cc(Nc3ccc(N4CCC(C(F)(F)F)CC4)cc3)ccc2n1` [Compound 419, 1-(2-(5-((4-(4-(trifluoromethyl)piperidin-1-yl)phenyl)amino)-2H-indazol-2-yl)ethyl)urea] fall in the same range of EC50: 0.1 to 100 nM for the first, 0.1 to 100 nM for the second.

`CN1Cc2cc(Nc3ccc(Oc4ccc(Cl)cc4)cc3)ccc2C1=O` [Compound 232, 5-((4-(4-chlorophenoxy)phenyl)amino)-2-methylisoindolin-1-one] and `COc1ccc(C)cc1Nc1ccc2c(c1)CN(C)C2=O` [Compound 231, 5-((2-methoxy-5-methylphenyl)amino)-2-methylisoindolin-1-one] fall in the same range of EC50: 0.1 to 100 nM for the first, 0.1 to 100 nM for the second.

`Cn1c(=O)c2ccc(Nc3ccc(N4CCC(C(F)(F)F)CC4)cc3)cc2n1C(=O)OC(C)(C)C` [Compound 188, tert-butyl 2-methyl-3-oxo-6-((4-(4-(trifluoromethyl)piperidin-1-yl)phenyl)amino)-2,3-dihydro-1H-indazole-1-carboxylate] showed an EC50 of 100 to 1000 nM.

Same assay, conditions: Homo sapiens; HT-1080 cells treated with RSL3; 3-fold, 10-point dilution, 1.1 μM highest concentration; Table 3; read-out: EC50 (nM), ferroptosis inhibitory activity

`Cc1cc(N2CC(C)OC(C(F)(F)F)C2)ccc1Nc1ccc2c(c1)OCC(=O)N2` (stereo not drawn) [Compound 562, 7-((2-methyl-4-(2-methyl-6-(trifluoromethyl)morpholino)phenyl)amino)-2H-benzo[b][1,4]oxazin-3(4H)-one] and `Cc1cc(N2CC(C)C2)ccc1Nc1ccc2c(c1)OCC(=O)N2` [Compound 577, 7-((2-methyl-4-(3-methylazetidin-1-yl)phenyl)amino)-2H-benzo[b][1,4]oxazin-3(4H)-one] fall in the same range of EC50: 0.1 to 100 nM for the first, 0.1 to 100 nM for the second.

`Cc1cc(N2CCC(OC(F)(F)F)C2)ccc1Nc1ccc2c(c1)OCC(=O)N2` (stereo not drawn) [Compound 589, 7-((2-methyl-4-(3-(trifluoromethoxy)pyrrolidin-1-yl)phenyl)amino)-2H-benzo[b][1,4]oxazin-3(4H)-one] and `Cc1cc(N2CCC(O)(C(F)(F)F)CC2)ccc1Nc1ccc2c(c1)OCC(=O)N2` [Compound 509, 7-((4-(4-hydroxy-4-(trifluoromethyl)piperidin-1-yl)-2-methylphenyl)amino)-2H-benzo[b][1,4]oxazin-3(4H)-one] fall in the same range of EC50: 0.1 to 100 nM for the first, 0.1 to 100 nM for the second.

Compared with `CC1(O)CCN(c2ccc(Nc3ccc4c(c3)OCC(=O)N4)cc2)CC1` [Compound 540, 7-((4-(4-hydroxy-4-methylpiperidin-1-yl)phenyl)amino)-2H-benzo[b][1,4]oxazin-3(4H)-one], `Cc1cc(N2CCC(C(F)F)CC2)ccc1Nc1ccc2c(c1)OCC(=O)N2` [Compound 654, 7-[4-[4-(difluoromethyl)-1-piperidyl]-2-methyl-anilino]-4H-1,4-benzoxazin-3-one] is lower in EC50: 100 to 1000 nM for the first, 0.1 to 100 nM for the second.

`Cc1cc(N2CCC(C(F)(F)F)CC2)ccc1Nc1ccc2[nH]ncc2c1` [Compound 497, N-(2-methyl-4-(4-(trifluoromethyl)piperidin-1-yl)phenyl)-1H-indazol-5-amine] and `Cc1cc(N2CCC(C(F)(F)F)CC2)ccc1Nc1ccc2c(c1)COCC(=O)N2` [Compound 650, 7-((2-methyl-4-(4-(trifluoromethyl)piperidin-1-yl)phenyl)amino)-1,5-dihydrobenzo[e][1,4]oxazepin-2(3H)-one] fall in the same range of EC50: 0.1 to 100 nM for the first, 0.1 to 100 nM for the second.

`Cc1cc(N2CCC(F)CC2)ccc1Nc1cnc2c(c1)OCC(=O)N2` [Compound 558, 7-(4-(4-fluoropiperidin-1-yl)-2-methylphenylamino)-2H-pyrido[3,2-b][1,4]oxazin-3(4H)-one] and `COc1cc(Nc2ccc(N3CCC(C(F)(F)F)CC3)cc2C)cc2c1NC(=O)CO2` [Compound 564, 5-methoxy-7-((2-methyl-4-(4-(trifluoromethyl)piperidin-1-yl)phenyl)amino)-2H-benzo[b][1,4]oxazin-3(4H)-one] fall in the same range of EC50: 0.1 to 100 nM for the first, 0.1 to 100 nM for the second.

`CCC1CN(c2ccc(Nc3ccc4c(c3)OCCC(=O)N4)c(C)n2)CCO1` (stereo not drawn) [Compound 557, 8-((6-(2-ethylmorpholino)-2-methylpyridin-3-yl)amino)-2,3-dihydrobenzo[b][1,4]oxazepin-4(5H)-one] and `Cc1cc(N2CCC(C(F)(F)F)CC2)ccc1Nc1ccc2c(c1)NC(=O)C2(C)C` [Compound 527, 3,3-dimethyl-6-((2-methyl-4-(4-(trifluoromethyl)piperidin-1-yl)phenyl)amino)indolin-2-one] fall in the same range of EC50: 0.1 to 100 nM for the first, 0.1 to 100 nM for the second.
